Consider four molecules from patent US10568317B2 (Biomatrica, Inc., priority 2015, dated 2020).

Where only a bound is given, the exact number is not on record here.

Holding throughout (type): cell-based
The test system of data set [1] is erythrocytes in whole blood. As to the kind of experiment: Erythrocyte sedimentation in whole blood: sucralose concentration and other saccharides, visual analysis (Example 2). The conditions noted are these: K2EDTA blood, 1 hour and 6 hours. The method, then:
Fresh blood was collected into BD K2EDTA VACUTAINER® tubes and pooled. 952 μL of fresh blood was aliquot into 2 mL centrifuge tubes, each containing 48 μL of sucralose at the indicated concentration in FIG. 2, or the indicated saccharide (ML848, a di-chlorinated monosaccharide, or DG783, a mono-fluorinated monosaccharide) at the indicated concentration. Sucralose solutions of different concentrations were prepared by dilution of 0.5 M sucralose to 10 mM in water. […] 48 μL of PBS and 0.9% saline served as controls. Final concentrations of sucralose or the indicated saccharide shown in FIG. 2 were as follows (from left to right): 24 mM sucralose, 12 mM sucralose, 6.24 mM sucralose, 2.88 mM sucralose, 1.44 mM sucralose, 0.96 mM sucralose, 0.48 mM sucralose, 24 mM sucrose, 2.4 mM sucrose, 24 mM trehalose, 24 mM melezitose, 4.8 mM ML848, and 24 mM DG783.
(§1) The filled centrifuge tubes were gently inverted five times to mix and stored upright on the benchtop at approximately 25° C. Tubes were photographed at 1 hour (FIG. 2, upper panel) and 6 hours (FIG. 2, center panel) against a white background for visual analysis of sedimentation rate. After 7 hours of storage, tubes were centrifuged for 20 min at 3000 rpm to determine the effect of hemolysis on sedimentation rate by visual analysis (FIG. 2, lower panel).

Data set [2] deals with erythrocytes in whole blood. As to the kind of experiment: Erythrocyte sedimentation in whole blood after addition of sucralose solution, visual analysis (Example 1). Conditions: about 24 mM sucralose (0.5 M solution, blood:solution 20:1), K2EDTA blood, ambient temperature, 6 hours and 24 hours. The method, then:
Fresh blood was collected into BD K2EDTA VACUTAINER® tubes and pooled. Blood and a solution of 0.5 M sucralose were mixed at a ratio of 20:1 by aliquotting 952 μL of fresh blood into 2 mL centrifuge tubes containing 48 μL of formulation, resulting in a concentration of about 24 mM sucralose. 48 μL of PBS and 0.9% saline served as controls. Blood with no formulation (NF) added served as an additional control. The filled centrifuge tubes were gently inverted five times to mix and stored upright on the benchtop at approximately 25° C. Tubes were photographed at 0 hours (FIG. 1A), 6 hours (FIG. 1B), and 24 hours (FIG. 1C) against a white background for visual analysis of sedimentation rate.

Data set [3] deals with erythrocytes in whole blood. As to the kind of experiment: Erythrocyte sedimentation in whole blood after addition of sucralose powder, visual analysis (Example 3). On the procedure:
Fresh blood was collected into BD K2EDTA VACUTAINER® tubes and pooled. 1 mL of fresh blood was aliquotted into 2 mL centrifuge tubes containing sucralose powder. Final concentrations of sucralose ranged from 7.5 mM to 100 mM, corresponding to 3.0 mg to 39.8 mg per mL of blood. The no formulation (NF) control sample received no addition of sucralose. Tubes were inverted at least five times until no visible undissolved material remained at the bottom of the tubes. Tubes were stored upright on the benchtop at approximately 25° C. Tubes were photographed at 1 hour (FIG. 3, upper panel) and 6 hours (FIG. 3, lower panel) against a white background for visual analysis of sedimentation rate.

In data set [4] the test system is erythrocytes in whole blood. As to the kind of experiment: Hemolysis by centrifugation after 7 hours of storage, visual analysis (Example 2). The method, then:
as §1

The subject of data set [5] is erythrocytes in whole blood. In words: Erythrocyte sedimentation in whole blood: sucralose compared to polyols and halogenated polyols, visual analysis (Example 5). The conditions noted are these: 0.5 M solution, final 24 mM sucralose, K2EDTA blood, 2 hours. The method, then: Fresh blood was collected into BD K2EDTA VACUTAINER® tubes and pooled. 952 μL of fresh blood was aliquot into 2 mL centrifuge tubes containing 48 μL of a solution of 0.5 M sucralose, the indicated polyol, or the indicated halogenated polyol. Additives at 0.25 M were adjusted to 300 mOsmol with NaCl. PBS and no formulation (NF) added served as controls. The filled centrifuge tubes were gently inverted five times to mix and stored upright on the benchtop at approximately 25° C. Tubes were photographed at 2 hours against a white background for visual analysis of sedimentation rate.

The subject of data set [6] is erythrocytes in whole blood. As to the kind of experiment: Erythrocyte sedimentation in whole blood collected with different anticoagulants, visual analysis (Example 4). The conditions noted are these: final 24 mM sucralose; ACD-B, K3EDTA, NaHep, LiHep, NaF, SPS, K2EDTA tubes; 2 hours and 8 hours. An excerpt: To screen for collection conditions, fresh blood was collected into a series of BD VACUTAINER® or Greiner Bio-One VACUETTE® low-volume blood collection tubes containing different anticoagulants, including acid citrate dextrose solution B (ACD-B), tri-potassium ethylenediaminetetraacetic acid (K3EDTA), sodium heparin (NaHep), lithium heparin (LiHep), sodium fluoride (NaF), and sodium polyanethol sulfonate (SPS). Collection into tubes containing di-potassium ethylenediaminetetraacetic acid (K2EDTA) served as a control. 952 μL of fresh blood was aliquot into 2 mL centrifuge tubes containing 48 μL of 0.5 M sucralose or PBS. No formulation (NF) added served as an additional control. The filled centrifuge tubes were gently inverted five times to mix and stored upright on the benchtop at approximately 25° C. Tubes were photographed at 2 hours (FIG. 4, upper panel) and 8 hours (FIG. 4, lower panel) against a white background for visual analysis of sedimentation rate. […] By contrast, addition of PBS had no effect on erythrocyte sedimentation rate.

Setting [7] is: other saccharides, final: 24 mM and 2.4 mM sucrose, 24 mM trehalose, 24 mM melezitose, 4.8 mM ML848, 24 mM DG783.

Take `OC[C@H]1O[C@@](CO)(O[C@H]2O[C@H](CO)[C@@H](O)[C@H](O)[C@H]2O)[C@@H](O[C@H]2O[C@H](CO)[C@@H](O)[C@H](O)[C@H]2O)[C@@H]1O` [melezitose]: in data set [1] (setting [7]), the “lower sedimentation rate of erythrocytes” value was “not observed”.

Regarding `OC[C@H]1O[C@H](O[C@]2(CCl)O[C@H](CCl)[C@@H](O)[C@@H]2O)[C@H](O)[C@@H](O)[C@H]1Cl` [sucralose, 1,6-dichloro-1,6-dideoxy-β-D-fructofuranosyl-4-chloro-4-deoxy-α-D-galactopyranoside], the “sedimentation rate of the erythrocytes compared to NF, PBS or saline” value in data set [2] is given as “lower sedimentation rate”. For the same molecule, in data set [1] (final sucralose concentrations below 5 mM), the “lower sedimentation rate of erythrocytes” value was “not observed”. The “sedimentation rate of erythrocytes” value in data set [1] (high concentrations of sucralose, ambient temperature) is listed as “lower sedimentation rate”. In data set [3] (sucralose powder below 24 mM, ambient temperatures, 6 hours), the “state of whole blood samples at lower concentrations of sucralose” value was “separation of the erythrocyte and plasma layers”. In addition, the “sucralose concentration at which homogeneity of whole blood samples was observed” value in data set [3] (sucralose powder, ambient temperatures, 6 hours) was no less than 24 mM. Also, the “rate of erythrocyte sedimentation versus sucralose concentration” value in data set [3] (sucralose powder, final 7.5 mM to 100 mM, K2EDTA blood, 1 hour and 6 hours) is on record as “inversely proportional to the concentration of sucralose”. Moreover, the “hemolysis of erythrocytes (coloration of plasma layer after centrifugation)” value in data set [4] (high concentration of sucralose, 7 hours of storage, centrifuged 20 min at 3000 rpm) is given as “not due to excessive hemolysis”. For the same molecule, in data set [4] (whole blood), the “final sucralose concentrations at which significant hemolysis was not seen” value is listed as no more than 40 mM. For the same molecule, in data set [5], the erythrocyte sedimentation rate entry is on record as “reduced erythrocyte sedimentation rate”. Moreover, the “erythrocyte sedimentation rate for each anticoagulant” value in data set [6] is given as “reduction of erythrocyte sedimentation rate”.

As to `OC[C@H]1O[C@@](CO)(O[C@H]2O[C@H](CO)[C@@H](O)[C@H](O)[C@H]2O)[C@@H](O)[C@@H]1O` [sucrose], in data set [1] (setting [7]), the “lower sedimentation rate of erythrocytes” value was “not observed”.

With `OC[C@H]1O[C@H](O[C@H]2O[C@H](CO)[C@@H](O)[C@H](O)[C@H]2O)[C@H](O)[C@@H](O)[C@@H]1O` [trehalose], in data set [1] (setting [7]), the “lower sedimentation rate of erythrocytes” value was “not observed”.
